The structures appear in SMILES notation. Converted amounts (≈) assume the structure as drawn.

Type in all cases: functional
Common to all, as to settings: 672 h

Assay [1] deals with Mycobacterium tuberculosis. Description: Antimycobacterial activity against Mycobacterium tuberculosis H37Rv grown on Lowenstein-Jensen solid medium assessed as growth inhibition incubated with compound dissolved in DMSO measured after 4 weeks.
The subject of assay [2] is Mycobacterium tuberculosis. Description: Antimycobacterial activity against Mycobacterium tuberculosis H37Rv grown on Lowenstein-Jensen solid medium assessed as growth inhibition incubated with compound dissolved in water measured after 4 weeks.
Assay [3] concerns Mycobacterium tuberculosis. Description: Antimycobacterial activity against MDR Mycobacterium tuberculosis grown in MGIT liquid medium assessed as growth inhibition measured after 4 weeks by BACTEC method.
Assay [4] concerns Mycobacterium tuberculosis. Nature of the assay: Antimycobacterial activity against Mycobacterium tuberculosis H37Rv grown in MGIT liquid medium assessed as growth inhibition measured after 4 weeks by BACTEC method.
Assay [5] relates to Mycobacterium tuberculosis. Description: Antimycobacterial activity against Mycobacterium tuberculosis H37Rv grown on Lowenstein-Jensen solid medium assessed as growth inhibition incubated with compound dissolved in ethanol/methanol measured after 4 weeks.
For assay [6], the system named is Mycobacterium tuberculosis. Description: Antimycobacterial activity against Mycobacterium tuberculosis H37Rv grown on Lowenstein-Jensen solid medium assessed as growth inhibition measured after 4 weeks.

As to `CCC1=C(O)C(=O)C=C(O)C1=O`, the MIC in assay [1] is 70 µg/mL (≈ 416 µM); in assay [2] it was 62.3 µg/mL (≈ 371 µM); in assay [3], 120 µg/mL (≈ 714 µM); in assay [4], 109 µg/mL (≈ 648 µM).

With `CC(C)CCc1cc2c(cc1O)OCC1c3cc(O)cc(CCC(C)C)c3OC21` (stereo not drawn), the MIC in assay [1] was 74.3 µg/mL (≈ 187 µM); in assay [2], 81.7 µg/mL (≈ 206 µM).

Regarding `C[C@@H]1CCC2(CO)C(C(=O)O)=CCCC2[C@@]1(C)CCc1ccoc1` (stereo partly drawn), the MIC in assay [5] was 31 µg/mL (≈ 93.2 µM); in assay [1], 37.4 µg/mL (≈ 113 µM); in assay [2] it was 36.7 µg/mL (≈ 110 µM).

In the case of `C=C1CC23CCC4[C@](O)(CO)C[C@@H](O)C[C@]4(C)C2CCC1C3` (stereo partly drawn), the minimal inhibitory concentration (MIC) in assay [5] stood at 39.7 µg/mL (≈ 130 µM); in assay [1], 37.6 µg/mL (≈ 123 µM); in assay [2], 66.8 µg/mL (≈ 218 µM).

Regarding `C[C@]12CC(=O)CC(CO)(CO)C1CC[C@@]13CC4[C@@H](CC12)[C@@]4(C)C3` (stereo partly drawn), the figures for the MIC in assay [5], in assay [1] and in assay [2] were 42.3 µg/mL (≈ 133 µM), 42.9 µg/mL (≈ 135 µM) and 23.3 µg/mL (≈ 73.2 µM), respectively.

On to `COc1ccc2c(c1OC)C=NC1C2CCC2CC3OCOC3CC21.Cl` (stereo not drawn), for which the values for the minimal inhibitory concentration (MIC) in assay [5], in assay [1] and in assay [2] were 16 µg/mL, 31.3 µg/mL and 50.3 µg/mL, respectively.

In the case of `O=C1CCc2nccc3c4ccccc4n1c23`, the MIC in assay [5] came to 30 µg/mL (≈ 135 µM); in assay [1] it was 42 µg/mL (≈ 189 µM); in assay [2], 49.3 µg/mL (≈ 222 µM).

In the case of `c1c2c(cc3c1C1CCN4CCC[C@@]56CCN3[C@@]1(CC5)C46)OCO2` (stereo partly drawn), the MIC amounted to 36.2 µg/mL (≈ 112 µM) in assay [1] and 38.7 µg/mL (≈ 119 µM) in assay [2].

With `CCC1=C(O)C(=O)C(CC)=C(O)C1=O`, the MIC in assay [3] worked out at 55 µg/mL (≈ 280 µM); in assay [4], 50 µg/mL (≈ 255 µM).

On to `CCCC1=C(O)C(=O)C=C(O)C1=O`, for which the MIC in assay [3] was 115 µg/mL (≈ 631 µM); in assay [4], 85 µg/mL (≈ 467 µM).

As for `CCCCCC1=C(O)C(=O)C=C(O)C1=O`, the figures for the MIC in assay [3] and in assay [4] were 110 µg/mL (≈ 523 µM) and 50 µg/mL (≈ 238 µM), respectively.

Consider `CCCCCCCC1=C(O)C(=O)C=C(O)C1=O`, for which the MIC in assay [3] is 106 µg/mL (≈ 445 µM); in assay [4], 45 µg/mL (≈ 189 µM).

As to `CCCCCCCCCC1=C(O)C(=O)C=C(O)C1=O`, the MIC came to 60 µg/mL (≈ 225 µM) in assay [3] and 7.5 µg/mL (≈ 28.2 µM) in assay [4].

As for `CCCC/C=C/CCCCCCCCCCCCCc1c(O)c(OC(C)=O)c(C)c(OC(C)=O)c1OC(C)=O`, the MIC was 40 µg/mL (≈ 73.2 µM) in assay [3] and 10 µg/mL (≈ 18.3 µM) in assay [4].

For the molecule `COc1cc(O)c(C/C=C/c2ccccc2)c(OC)c1`, the MIC is 58.4 µg/mL (≈ 216 µM) in assay [1] and 37.9 µg/mL (≈ 140 µM) in assay [2].

As to `COc1cc(O)cc(O)c1C/C=C/c1ccccc1`, the results for the MIC in assay [1] and in assay [2] were 49.7 µg/mL (≈ 194 µM) and 53.7 µg/mL (≈ 210 µM), respectively.

For the molecule `COc1cc(O)c(C/C=C/c2ccccc2)c(O)c1OC`, the MIC turned out to be 41 µg/mL (≈ 143 µM) in assay [1] and 48.3 µg/mL (≈ 169 µM) in assay [2].

As to `COc1cc(O)c(CCCc2ccccc2)c(O)c1OC`, the minimal inhibitory concentration (MIC) in assay [1] was 34.3 µg/mL (≈ 119 µM); in assay [2], 49.7 µg/mL (≈ 172 µM).

Consider `COc1ccc(C2Oc3cc(O)c(OC)c(O)c3C(=O)C2OC)cc1` (stereo not drawn), for which the MIC in assay [1] came to 53 µg/mL (≈ 153 µM); in assay [2], 59.3 µg/mL (≈ 171 µM).

In the case of `COc1cc(-c2cc(=O)c3c(O)cc(O)cc3o2)c(OC)c(OC)c1OC`, the MIC in assay [5] was 7.4 µg/mL (≈ 19.8 µM); in assay [1], 15 µg/mL (≈ 40.1 µM); in assay [2] it was 48 µg/mL (≈ 128 µM).

As for `COc1ccc(-c2coc3cc(O)cc(O)c3c2=O)cc1C=O`, the MIC amounted to 37 µg/mL (≈ 118 µM) in assay [1] and 36.3 µg/mL (≈ 116 µM) in assay [2].

Consider `COc1cc2c(=O)c(-c3ccc4c(c3)OCO4)coc2c2c1OC(C)(C)CC2`, for which the MIC is 40.3 µg/mL (≈ 106 µM) in assay [5], 74.7 µg/mL (≈ 196 µM) in assay [1] and 37.9 µg/mL (≈ 99.6 µM) in assay [2].

In the case of `CCCC/C=C/CCCCCCCCCC1=C(O)C(=O)C=C(OC)C1=O`, the minimum inhibitory concentration (MIC) in assay [1] is 40.7 µg/mL (≈ 112 µM); in assay [2] it was 50 µg/mL (≈ 138 µM).

As to `CCCC/C=C/CCCCCCCCCC1=C(O)C(=O)C(C)=C(O)C1=O`, the MIC in assay [1] was 41.3 µg/mL (≈ 114 µM); in assay [2], 40.9 µg/mL (≈ 113 µM).

In the case of `CCCC/C=C/CCCCCCCCCCCCCC1=C(C(C)=O)C(=O)C(C)=C(OC(C)=O)C1=O`, the MIC in assay [3] came to 27.5 µg/mL (≈ 56.5 µM); in assay [4] it was 5 µg/mL (≈ 10.3 µM).

Turning to `CCCCCCCCCCCC1=C(C(C)=O)C(=O)C=C(OC(C)=O)C1=O`, the MIC in assay [3] was found to be 50 µg/mL (≈ 138 µM); in assay [4], 42.5 µg/mL (≈ 117 µM).

On to `CCCCCCCCCCCC1=C(OC)C(=O)C=C(OC)C1=O`, for which the MIC worked out at 20 µg/mL (≈ 62 µM) in assay [3] and 10 µg/mL (≈ 31 µM) in assay [4].

Regarding `CCCCCCCCCCCCCCCC1=C(O)C(=O)C=C(O)C1=O`, the MIC in assay [3] came to 105 µg/mL (≈ 300 µM); in assay [4], 107 µg/mL (≈ 305 µM).

Turning to `CCCCCCCCCCCC1=C(O)C(=O)C=C(OC)C1=O` [5-O-METHYLEMBELIN], the MIC in assay [3] came out at 32.9 µg/mL (≈ 107 µM); in assay [4], 15 µg/mL (≈ 48.6 µM).

For the molecule `CCCCCCCCCCCC1=C(O)C(=O)C=C(O)C1=O` [EMBELIN], the minimum inhibitory concentration (MIC) in assay [5] worked out at 14.7 µg/mL (≈ 49.9 µM); in assay [1] it was 35.3 µg/mL (≈ 120 µM); in assay [2], 49 µg/mL (≈ 166 µM); in assay [3], 50 µg/mL (≈ 170 µM); in assay [4] it was 15 µg/mL (≈ 51 µM).

With `Cc1cc(O)c2c(c1)C(=O)c1cc(O)cc(O)c1C2=O` [EMODIN], the MIC stood at 51.7 µg/mL (≈ 191 µM) in assay [1] and 50.3 µg/mL (≈ 186 µM) in assay [2].

On to `CC[C@@H](CO)NCCN[C@@H](CC)CO` [ETHAMBUTOL], for which the MIC worked out at 2.65 µg/mL (≈ 13 µM) in assay [6], 15 µg/mL (≈ 73.4 µM) in assay [3] and 2.5 µg/mL (≈ 12.2 µM) in assay [4].

For the molecule `NNC(=O)c1ccncc1` [ISONIAZID], the MIC was determined as 0.6 µg/mL (≈ 4.38 µM) in assay [6], 2.7 µg/mL (≈ 19.7 µM) in assay [3] and 0.8 µg/mL (≈ 5.83 µM) in assay [4].

Consider `COc1ccc(-c2oc3cc(O)cc(O)c3c(=O)c2O)cc1` [KAEMPFERIDE], for which the MIC in assay [1] is 32.7 µg/mL (≈ 109 µM); in assay [2], 26 µg/mL (≈ 86.6 µM).

For the molecule `CC(=O)c1c(C)cc2cccc(O)c2c1O` [NEPODIN], the MIC turned out to be 40.3 µg/mL (≈ 186 µM) in assay [1] and 84.7 µg/mL (≈ 392 µM) in assay [2].

For `O=C1C[C@@H](c2ccccc2)Oc2cc(O)cc(O)c21` [PINOCEMBRIN], the MIC came out at 73 µg/mL (≈ 285 µM) in assay [1] and 63.3 µg/mL (≈ 247 µM) in assay [2].

Regarding `CC1=CC(=O)c2c(O)cccc2C1=O` [PLUMBAGIN], the MIC in assay [1] amounted to 42.3 µg/mL (≈ 225 µM); in assay [2] it was 40.3 µg/mL (≈ 214 µM).

As for `COc1cc(O)c2c(=O)c(O)c(-c3ccc(O)cc3)oc2c1` [RHAMNOCITRIN], the MIC is 15.3 µg/mL (≈ 51 µM) in assay [5], 37.7 µg/mL (≈ 126 µM) in assay [1] and 59.7 µg/mL (≈ 199 µM) in assay [2].

In the case of `CO[C@H]1/C=C/O[C@@]2(C)Oc3c(C)c(O)c4c(O)c(c(/C=N/N5CCN(C)CC5)c(O)c4c3C2=O)NC(=O)/C(C)=C\C=C\[C@H](C)[C@H](O)[C@@H](C)[C@@H](O)[C@@H](C)[C@H](OC(C)=O)[C@@H]1C` [RIFAMPIN], the MIC in assay [6] worked out at 45.7 µg/mL (≈ 55.5 µM); in assay [3] it was 30 µg/mL (≈ 36.5 µM); in assay [4] it was 7.5 µg/mL (≈ 9.11 µM).

As to `CCCCCCCCCCCCCC1=C(O)C(=O)C=C(O)C1=O` [Rapanone], the MIC in assay [3] was 65 µg/mL (≈ 202 µM); in assay [4] it was 35 µg/mL (≈ 109 µM).

Regarding `COc1ccc(-c2oc3cc(O)c(OC)c(O)c3c(=O)c2OC)cc1` [SANTIN], the MIC in assay [1] stood at 59 µg/mL (≈ 171 µM); in assay [2] it was 51 µg/mL (≈ 148 µM).

For the molecule `CN[C@@H]1[C@H](O[C@H]2[C@H](O[C@H]3[C@H](O)[C@@H](O)[C@H](N=C(N)N)[C@@H](O)[C@@H]3N=C(N)N)O[C@@H](C)[C@]2(O)C=O)O[C@@H](CO)[C@H](O)[C@H]1O` [STREPTOMYCIN], the MIC in assay [6] worked out at 4.95 µg/mL (≈ 8.51 µM); in assay [3], 2.5 µg/mL (≈ 4.3 µM); in assay [4], 3.3 µg/mL (≈ 5.67 µM).

In the case of `CCCCCCCCCCCCCC1=C(O)C(=O)C=C(OC)C1=O` [Sorgoleone-364], the MIC came to 70 µg/mL (≈ 208 µM) in assay [3] and 60 µg/mL (≈ 178 µM) in assay [4].

Values taken from ChEMBL document CHEMBL3044747, “The antimycobacterial MICs, SARs, and QSARs of some ethnobotanically selected phytocompounds” (2013).
